Measured values taken from EP0489404A2, “Method of treating shock using a potassium channel activator” (E.R. SQUIBB & SONS, INC., priority 1990, dated 1992).
pIC50: −log10 of the molar value.

What was measured:
[1] = system: Ischemic Isolated Rat Heart; test: Globally ischemic isolated perfused rat heart (Langendorff), protective effect; design: species or system Male Sprague-Dawley rats; LDH (Lactate Dehydrogenase Release), Reperfusion (Post-Ischemic Event): unit not given here; settings: 10 µM; for FLOW (coronary flow), Pre-ischemic Event (Post Drug) / HR (Heart Rate), Pre-ischemic Event (Post Drug) / LVDP (Left Ventricular Developed Pressure), Pre-ischemic Event (Post Drug): after 10 minutes drug treatment, n = 4; for FLOW (coronary flow), Pre-ischemic Event (Post Drug) / HR (Heart Rate), Pre-ischemic Event (Post Drug) / LVDP (Left Ventricular Developed Pressure), Pre-ischemic Event (Post Drug) / DP (Double Product), Pre-ischemic Event (Post Drug): before ischemia; for DP (Double Product), Pre-ischemic Event (Post Drug) / DP (Double Product), Reperfusion (Post-Ischemic Event): HR x LVDP divided by 1000; for DP (Double Product), Pre-ischemic Event (Post Drug): lower = more cardiodepressant; for FLOW (coronary flow), Reperfusion (Post-Ischemic Event) / HR (Heart Rate), Reperfusion (Post-Ischemic Event) / LVDP (Left Ventricular Developed Pressure), Reperfusion (Post-Ischemic Event) / DP (Double Product), Reperfusion (Post-Ischemic Event) / LDH (Lactate Dehydrogenase Release), Reperfusion (Post-Ischemic Event): occlusion 25 minutes, reperfusion 30 minutes; for DP (Double Product), Reperfusion (Post-Ischemic Event): higher = more cardioprotective; for LDH (Lactate Dehydrogenase Release), Reperfusion (Post-Ischemic Event): lower = greater cardioprotection
Description: Grover et al., "Dissociation of Cardiodepression from Cardioprotection with Calcium Antagonists: Diltiazem Protects Ischemic Rat Myocardium with a Lower Functional Cost as Compared with Verapamil and Nifedipine", Journal of Cardiovascular Pharmacology; pages 331-340, Vol. 14, No. 2 (1989), describe a model for testing globally ischemic, isolated rat hearts. This model is expected to be a reliable indicator of protection since the laboratory-induced isolation and ischemic event including perfusion with a cardioplegic solution, reasonably duplicates the environment and conditions for the heart during and after a shock or trauma episode. Grover et al. express the efficacy of protective agents as the amount of lactate dehydrogenase (LDH) release and post-ischemic cardiac function. Lactate dehydrogenase is an enzyme released in the heart during an ischemic event and is an index of cardiac cell necrosis. In the Grover et al. model, this is measured during reperfusion and an agent which provides for lower release levels of LDH is considered to offer greater cardioprotection since lower LDH indicates a smaller infarct size. Cardiac function is determined using the double product (DP) of heart rate times the left ventricular developed pressure (LVDP) divided by 1,000.
The lower the value for DP before the ischemic isolation of the heart for a given agent, the more cardiodepressant it is considered to be and the higher the value of DP is during reperfusion, the more cardioprotective the agent is.
Male Sprague-Dawley rats (450-550 g) were used in all experiments. The rats were anesthetized using 30 mg/kg sodium pentobarbital (i.p.). They were intubated and then treated with i.v. heparin (1000 U/kg). While being mechanically ventilated, their hearts were perfused in situ via retrograde cannulation of the aorta. The hearts were then excised and quickly moved to a Langendorff apparatus where they were perfused with Krebs-Henseleit bicarbonate buffer (112 mM […], 25 mM NaHCO₃, 5 mM KCl, 1.2 mM MgSO₄, 1 mM KH₂PO₄, 1.25 mM CaCl₂, 11.5 mM dextrose, and 2 mM pyruvate bubbled with 95% O₂ - 5% CO₂) at a constant pressure (75 mm Hg). A water filled latex balloon attached to a metal cannula was then inserted into the left ventricle and connected to a Statham pressure transducer for measurement of left ventricular pressure. The hearts were allowed to equilibrate for 15 minutes at which time end diastolic pressure (EDP) was adjusted to 5 mm Hg and this was maintained for 5 minutes. Pre-ischemia or pre-drug function, heart rate and coronary flow (extracorporeal electromagnetic flow probe, Carolina Medical Electronics, King, N.C.) were then measured. Cardiac function was determined using the double product of heart rate (HR) X left ventricular developed pressure (LVDP) divided by 1000. Cardiac temperature was maintained throughout the experiment by submerging the hearts in 37°C buffer which was allowed to accumulate in a stoppered, heated chamber.
Once the baseline measurements were taken, the hearts were treated with 10 µM cromakalim, compounds C', C'', E', E'', F', F'' (n = 4 each) or with vehicle buffer (0.01% DMSO, n = 7). All of these hearts were treated with their respective drugs or vehicle for ten minutes. At this time, post-drug cardiac function and flow were measured and then the hearts were made globally ischemic by shutting off the buffer perfusion. The ischemia was maintained for 25 minutes, the hearts were then reperfused with nondrug treated buffer. Reperfusion was maintained for a total of 30 minutes and at this time reperfusion function and flow were again determined.

rat aorta = test: Inhibition of agonist-induced constriction in rat aorta (vasodilation, non-ischemic tissue); settings: concentration inhibiting agonist-induced constriction by 50 percent, normal
Description: Also included in the TABLE are the IC₅₀(m) values for rat aorta. The IC₅₀ (rat aorta) value is the concentration of the particular compound which inhibits agonist-induced constriction in rat aorta by 50 percent. Thus, the lower values indicate greater vasodilation and it should be noted that these values are for normal, i.e., non-ischemic, tissue. It can be seen that cromakalim with an IC₅₀ of 5.7 x 10⁻⁸ m is a relatively potent vasodilator in non-ischemic tissue.

Row | SMILES | FLOW (coronary flow), Pre-ischemic Event (Post Drug) [1] | HR (Heart Rate), Pre-ischemic Event (Post Drug) [1] [beats/min] | LVDP (Left Ventricular Developed Pressure), Pre-ischemic Event (Post Drug) [1] [mmHg] | DP (Double Product), Pre-ischemic Event (Post Drug) [1] | FLOW (coronary flow), Reperfusion (Post-Ischemic Event) [1] | HR (Heart Rate), Reperfusion (Post-Ischemic Event) [1] [beats/min] | LVDP (Left Ventricular Developed Pressure), Reperfusion (Post-Ischemic Event) [1] [mmHg] | DP (Double Product), Reperfusion (Post-Ischemic Event) [1] | LDH (Lactate Dehydrogenase Release), Reperfusion (Post-Ischemic Event) [1] | pIC50 (rat aorta) | also measured
1 | CC1(C)Oc2ccc(C#N)cc2[C@@H](NC(=NC#N)Nc2ccccc2)[C@@H]1O [C'"] | 15.2 | 244 | 134 | 32.7 | 13.2 | 244 | 74 | 18.2 | 10.41 | 5.86 | FLOW (coronary flow), Pre-ischemic Event (Post Drug) ([1]; listed as C"): 20.4; HR (Heart Rate), Pre-ischemic Event (Post Drug) ([1]; listed as C"): 250 beats/min; LVDP (Left Ventricular Developed Pressure), Pre-ischemic Event (Post Drug) ([1]; listed as C"): 121 mmHg; DP (Double Product), Pre-ischemic Event (Post Drug) ([1]; listed as C"): 29.8; DP (Double Product), Reperfusion (Post-Ischemic Event) ([1]; listed as C"): 14.8; FLOW (coronary flow), Reperfusion (Post-Ischemic Event) ([1]; listed as C"): 10.1; HR (Heart Rate), Reperfusion (Post-Ischemic Event) ([1]; listed as C"): 240 beats/min; LVDP (Left Ventricular Developed Pressure), Reperfusion (Post-Ischemic Event) ([1]; listed as C"): 62 mmHg; LDH (Lactate Dehydrogenase Release), Reperfusion (Post-Ischemic Event) ([1]; listed as C"): 9.88; pIC50 (rat aorta; listed as C"): 6.35
2 | CC1(C)Oc2ccc(C#N)cc2C(N2CCCC2=O)C1O (stereo not shown) [Cromakalim, cromakalim, reference compound] | 23.9 | 250 | 131 | 33.0 | 13.9 | 234 | 87 | 20.5 | 8.89 |  | pIC50 (rat aorta; Rattus norvegicus): 7.24
3 | CC1(C)Oc2ccc(C#N)cc2[C@@H](NC(=S)Nc2ccccc2)[C@@H]1O [E'] | 15.3 | 236 | 141 | 32.75 | 13.4 | 229 | 55 | 14.83 | 13.46 | 5.77 | FLOW (coronary flow), Pre-ischemic Event (Post Drug) ([1]; listed as E"): 24.8; HR (Heart Rate), Pre-ischemic Event (Post Drug) ([1]; listed as E"): 234 beats/min; LVDP (Left Ventricular Developed Pressure), Pre-ischemic Event (Post Drug) ([1]; listed as E"): 128 mmHg; DP (Double Product), Pre-ischemic Event (Post Drug) ([1]; listed as E"): 30.06; DP (Double Product), Reperfusion (Post-Ischemic Event) ([1]; listed as E"): 18.52; FLOW (coronary flow), Reperfusion (Post-Ischemic Event) ([1]; listed as E"): 17.56; HR (Heart Rate), Reperfusion (Post-Ischemic Event) ([1]; listed as E"): 230 beats/min; LVDP (Left Ventricular Developed Pressure), Reperfusion (Post-Ischemic Event) ([1]; listed as E"): 81 mmHg; LDH (Lactate Dehydrogenase Release), Reperfusion (Post-Ischemic Event) ([1]; listed as E"): 8.77; pIC50 (rat aorta; listed as E"): 6.09
4 | CC1(C)Oc2ccc(C#N)cc2[C@@H](NC(=NC#N)Oc2ccccc2)[C@@H]1O [F'] | 16.0 | 238 | 128 | 30.5 | 10.4 | 212 | 28 | 6.2 | 21.7 | < 4.00 | FLOW (coronary flow), Pre-ischemic Event (Post Drug) ([1]; listed as F"): 28.3; HR (Heart Rate), Pre-ischemic Event (Post Drug) ([1]; listed as F"): 239 beats/min; LVDP (Left Ventricular Developed Pressure), Pre-ischemic Event (Post Drug) ([1]; listed as F"): 159 mmHg; DP (Double Product), Pre-ischemic Event (Post Drug) ([1]; listed as F"): 38.02; DP (Double Product), Reperfusion (Post-Ischemic Event) ([1]; listed as F"): 14.72; FLOW (coronary flow), Reperfusion (Post-Ischemic Event) ([1]; listed as F"): 13.92; HR (Heart Rate), Reperfusion (Post-Ischemic Event) ([1]; listed as F"): 247 beats/min; LVDP (Left Ventricular Developed Pressure), Reperfusion (Post-Ischemic Event) ([1]; listed as F"): 59 mmHg; LDH (Lactate Dehydrogenase Release), Reperfusion (Post-Ischemic Event) ([1]; listed as F"): 10.65; pIC50 (rat aorta; listed as F"): 5.31
